Patent US20150313906A1, “COMBINATION” (GLAXOSMITHKLINE LLC, priority 2012, published 2015)
Like-named read-outs stand apart in the source and are kept apart here.

Tests used:
[1] = tested on: Farage, a DLBCL line harboring WT EZH2; experiment: DLBCL cell growth (CellTiter-Glo) with BCL-2 inhibitor after Compound A pre-treatment, Farage; format: cell-based; details: for IC50: read-out: gIC50
Method: (§1) Plates were incubated for 6 days at 37° C. in 5% CO2. Cells were then lysed with CellTiter-Glo (CTG) (Promega) according to the manufacturer's protocol and chemiluminescent signal was detected with a TECAN Safire2 microplate reader. CTG estimates cell number through detection of cellular ATP levels. In addition, an untreated plate of cells was harvested at the time of compound addition (T0) to quantify the starting number of cells. CTG values were expressed as a percent of the T0 value and plotted against compound concentration.

[2] = tested on: SU-DHL-6, a DLBCL line harboring a Y641N mutation in EZH2; experiment: DLBCL cell growth (CellTiter-Glo) with BCL-2 inhibitor after Compound A pre-treatment, SU-DHL-6; format: cell-based; details: for IC50: Homo sapiens, read-out: gIC50
Method: as §1

[3] = tested on: WSU-DLCL-2, a DLBCL line harboring a Y641F mutation in EZH2; experiment: DLBCL cell growth (CellTiter-Glo) with BCL-2 inhibitor after Compound A pre-treatment, WSU-DLCL2; format: cell-based; details: Homo sapiens, read-out: gIC50
Method: as §1

[4] = tested on: KARPAS-422, a DLBCL line harboring a Y641N mutation in EZH2; experiment: DLBCL cell growth (CellTiter-Glo) with BCL-2 inhibitor after Compound A pre-treatment, KARPAS-422; details: for IC50: read-out: gIC50
Method: as §1

[5] = 144 h, BCL2 inhibitor alone (no Compound A), 6 days
[6] = Compound A 1 μM 72 h pre-treatment then 6 day co-treatment
[7] = 144 h, SU-DHL-6, BCL2 inhibitor alone (no Compound A), 6 days
[8] = SU-DHL-6, Compound A 250 nM 72 h pre-treatment then 6 day co-treatment
[9] = WSUDLCL2, 144 h, WSU-DLCL2, BCL2 inhibitor alone (no Compound A), 6 days
[10] = WSUDLCL2, WSU-DLCL2, Compound A 250 nM 72 h pre-treatment then 6 day co-treatment
[11] = KARPAS-422, BCL2 inhibitor alone (no Compound A), 6 days
[12] = KARPAS-422, Compound A 100 nM 72 h pre-treatment then 6 day co-treatment
[13] = KARPAS-422, Compound A 500 nM 72 h pre-treatment then 6 day co-treatment

Row | IC50 [2, 7] | IC50 [2, 8] | IC50 [4, 11] | IC50 [4, 12] | IC50 [4, 13] | Compound | IC50 [1, 5] | Fold shift in potency over ABT-263 alone ([1]; Compound A 1 μM) | IC50 [1, 6] | Fold shift in potency over ABT-263 alone ([2]; SU-DHL-6, Compound A 250 nM) | IC50 [3, 9] | IC50 [3, 10] | Fold shift in potency over ABT-263 alone ([4]; KARPAS-422, Compound A 100 nM) | Fold shift in potency over ABT-263 alone ([4]; KARPAS-422, Compound A 500 nM) | Fold shift in potency over ABT-737 alone ([1]; Compound A 1 uM) | Fold shift in potency over ABT-737 alone ([2]; SU-DHL-6, Compound A 250 nM) | Fold shift in potency over ABT-737 alone ([4]; KARPAS-422, Compound A 100 nM) | Fold shift in potency over ABT-737 alone ([4]; KARPAS-422, Compound A 500 nM)
1 | 518 nM | 17 nM | 169 nM | 60 nM | 0.4 nM | CC1(C)CCC(c2ccc(Cl)cc2)=C(CN2CCN(c3ccc(C(=O)NS(=O)(=O)c4ccc(N[C@H](CCN5CCOCC5)CSc5ccccc5)c(S(=O)(=O)C(F)(F)F)c4)cc3)CC2)C1 [ABT-263] | 455 nM | 43 | 11 nM | 31 | 464 nM | 1150 nM | 2.8 | 423 |  |  |  | 
2 | 1330 nM | 110 nM | 334 nM | 78 nM | 1.1 nM | CN(C)CC[C@H](CSc1ccccc1)Nc1ccc(S(=O)(=O)NC(=O)c2ccc(N3CCN(Cc4ccccc4-c4ccc(Cl)cc4)CC3)cc2)cc1[N+](=O)[O-] [ABT-737] | 4710 nM |  | 246 nM |  | 1410 nM | 971 nM |  |  | 19 | 12 | 4.3 | 304
